Article PMC4658182, “The Synthetic Antimicrobial Peptide 19-2.5 Interacts with Heparanase and Heparan Sulfate in Murine and Human Sepsis” (PLoS ONE, 2015)

Legend:
[1] = system: heparanase; assay: Plasma heparanase level (ELISA), human plasma, peptide added ex vivo; assay type: biochemical; conditions: 20 μg/ml peptide ex vivo, Fig 1B, n.s.
Procedure: As described before, we used plasma from 18 adult individuals within 24 hours after presentation with septic shock, according to the ACCP/SCCM definition after written informed consent of patients or their legal representative. Individuals below 18 years were excluded. Furthermore, we used plasma from healthy human donors after written informed consent (n = 10). No personal or identifying information was collected from study participants. All samples are stored in the RWTH centralized Biomaterial Database (RWTH cBMB) of the University Hospital RWTH Aachen. The local ethics committee (University Hospital RWTH Aachen, EK 206_09) approved this study before inclusion of the first individual.
Heparanase levels in human and murine plasma were measured using a commercial ELISA kit (No.: E03H0100, AMS Biotechnology, Oxon, United Kingdom) according to the manufacturer’s instructions. The ELISA´s detection range is 1.0 ng/ml– 5000 ng/ml.

[2] = Circulating HS-fragments in plasma (ELISA), CLP septic mice; assay type: in vivo, murine; conditions: CLP-mice (NMRI), 24 h after CLP, peptide i.v. infusion 20 μg/ml, 100 μl/h vs NaCl 0.9%, n = 6 per group, Fig 4, ***p < 0.0001
Procedure: Levels of circulating HS-fragments in murine plasma were measured using a commercial ELISA kit (No.: E0623Ge, AMS Biotechnology, Oxon, United Kingdom) according to the manufacturer’s instructions. Circulating HS-fragments in plasma were defined by the sum of the HS derived disaccharides obtained after enzymatic cleavage by heparanase. Due to the ELISA´s detection range of 4.69 ng/ml– 300 ng/ml samples were diluted 1:30 in physiological saline (0.9%). The sensitivity of the ELISA is 1.17ng/ml.
(§1) The murine model of polymicrobial sepsis was divided into three steps as described before. Briefly, in a first step 12 NMRI mice underwent a catheterization procedure under general (isoflurane 1% to 2% in oxygen/air mix with a FiO2 of 0.3) and local (0.2 ml lidocaine 2%) anesthesia. A central vein catheter (PE-tube, self-made) was implanted in the jugular vein. After further local infiltration with lidocaine, the neck was closed by single suture. To prevent hypothermia all animals were kept on a heating pad throughout the surgical procedure. Mice were transferred back into the cage to rest for 48h. The i.v.-line was connected to the syringe pump at a rate of 100 μl/h (NaCl 0.9%).
In a second step, general and local anesthesia for cecal ligature and puncture (CLP) was performed as described above. The animal were transferred to the cage and reconnected with the i.v.-line. […]

[3] = system: heparanase; assay: Relative heparanase mRNA expression in organs (qPCR), CLP septic mice; assay type: in vivo, murine; conditions: 24 h after CLP
Procedure: as §1
In a second step, general and local anesthesia for cecal ligature and puncture (CLP) was performed as described above. The animal were transferred to the cage and reconnected with the i.v.-line. Depending on the group, peptide 19–2.5 infusion (20 μg/ml, 100 μl/h) or NaCl 0.9% infusion (100 μl/h) was started.
Finally, in a third step all animals were killed 24 h after CLP. Therefore, the animals were anesthetized as described above, brought to a prone position and the abdomen and thorax were opened. Blood was sampled in pre-citrated syringes. Directly after killing the animal under general anesthesia by cervical dislocation heart, liver, lung, kidney and spleen were snap-frozen in liquid […] until further procedures.
As described before, total RNA was extracted from snap-frozen tissue (RNeasy Mini Kit, Qiagen, Hilden, Germany) and reverse transcribed to cDNA (Quanti Tec, Rev Transcription Kit, Qiagen, Hilden, Germany). cDNA was analyzed by quantitative real-time PCR performed with Power SYBR Green PCR Master Mix on a StepOnePlus (all Applied Biosystems, Foster City, CA, USA) using a mouse specific primer (biomers, Ulm, Germany) for heparanase 5’-[…]-3’ (for) and 5’-[…]-3’ (rev). Beta-actin was used as an endogenous normalization control: 5’-[…]-3’ (for), 5’-CGG ATGTCAACGTCACACTT-3’ (rev). […]
All data are given as mean ± standard deviation (SD). As described recently, the PCR-derived mRNA expressions were analyzed using a relative expression software tool (REST, (http://www.gene-quantification.de/rest.html, rest-mcs-beta-9august 2006) performing a randomization test. This tool avoids assumptions on distributions and applies a pair wise fixed reallocation randomization test, which reallocates control and sample groups (= pair wise fixed reallocation). The expression ratios are calculated on the basis of the mean crossing point (CP) values for reference and target genes. We used a multiple t-test with Holm-Šídák correction when comparing differences between groups. […]

[4] = set-up: method as in PMID 22457281; conditions: after incubating HS with peptide 19–2.5; cited from earlier work
[5] = system: Gram-negative and Gram-positive bacteria as well as against viruses; conditions: cited from earlier work
Source text: (§2) The synthetic antimicrobial peptide 19–2.5 belongs to the class of synthetic anti-lipopolysaccharide peptides (SALP = synthetic anti-LPS peptides). […] We recently reported that peptide 19–2.5 is able to decrease the inflammatory response in murine cells stimulated with both PAM ...

[6] = system: mice; conditions: cited from earlier work
Source text: as §2

peptide 19–2.5: synthetic antimicrobial peptide 19–2.5 belongs to the class of synthetic anti-lipopolysaccharide peptides (SALP = synthetic anti-LPS peptides)
plasma heparanase level after ex vivo addition of peptide ([1]; plasma of healthy human volunteers (n = 10)): did not influence heparanase levels | plasma heparanase level after ex vivo addition of peptide ([1]; plasma of septic shock patients (n = 18)): did not influence heparanase levels | levels of circulating HS-fragments in plasma vs untreated control [2]: significantly decreased in CLP-mice treated with peptide 19–2.5 compared to untreated control animals | heparanase mRNA expression under peptide treatment ([3]; all investigated organ tissues (heart, liver, lung, kidney, spleen), CLP-mice, 20 μg/ml, 100 μl/h i.v., Fig 2): decreased heparanase mRNA expression in all investigated organ tissues | relative heparanase mRNA expression, untreated CLP-mice vs peptide-treated ([3]; kidney, increase in untreated CLP-mice vs peptide 19–2.5 (20 μg/ml, 100 μl/h i.v., n = 6 per group), normalized to ß-actin, mean ± SD, Fig 2E): 5.7±1.9 fold | relative heparanase mRNA expression, untreated CLP-mice vs peptide-treated ([3]; lung, liver, spleen, heart and kidney, result in words, 20 μg/ml, 100 μl/h i.v., n = 6 per group, Fig 2A–2E, **p < 0.01, ***p < 0.0001): significantly higher in untreated CLP-mice compared to mice treated with peptide 19–2.5 | relative heparanase mRNA expression, untreated CLP-mice vs peptide-treated ([3]; lung, increase in untreated CLP-mice vs peptide 19–2.5 (20 μg/ml, 100 μl/h i.v., n = 6 per group), normalized to ß-actin, mean ± SD, Fig 2A): 2.2±2.2 fold | effect on peptide secondary structure and on HS hydration and sulfation status [4]: alteration of the peptide’s secondary structure and a characteristic change in the hydration and sulfation status of HS | anti-inflammatory activity [5]: shows anti-inflammatory activity against Gram-negative and Gram-positive bacteria as well as against viruses | protection from lethal septic shock [6]: protects mice from lethal septic shock
